# Entries after “also recorded” stand apart in the source; their conditions may differ.
# Key:
# [1] = test system: healthy cats; assay: Blood pressure and heart rate (oscillometric) in healthy cats; assay type: in vivo, cat
# Experimental: In this study, 3 male cats and 2 female cats, totally 5 Japanese cats, aging 3 to 6 years old were used, which were raised in an animal hospital and for which no abnormalities were observed clinically and by blood test. The subject cats were individually placed in each cage in which each cat was allowed to take water ad libitum, and each cat was fed twice a day after measuring the necessary items. For the purpose of acclimatization, the cats were measured for blood pressure noninvasively twice a day for 2 weeks.
# Blood pressure and heart rate were measured as follows: These were noninvasively measured oscillometrically by using Life Scope 9 produced by NIHON KOHDEN. Systolic pressure, diastolic pressure and heart rate were measured 5 times each before the administration of beraprost sodium and 30 minutes, 1 hour, 2 hours and 3 hours after administration of beraprost sodium at the right foreleg of each cat. From the 5 measured values, the maximum and minimum values were excluded, and the average of the remaining 3 measured values was adopted as the measured value of the individual at the time point. The measurements were carried out every time for 7 days, and the responses by the respective administrations had about the same pattern. In the Example, the results (FIGS. 1 and 2) at the first administration of beraprost sodium are shown as a representative.
# In each administration series, the same cat was used in each administration series as the subject cat for the correctness of the evaluation of the test drug. To eliminate the influence of the test drug of the previous series, wash out period of 2 weeks were given after the termination of the respective series. In the beraprost sodium administration series and the placebo administration series, the solution-containing capsules prepared in Example 2 were used. Administration was performed orally at fasting twice a day at intervals of 12 hours for continuous 7 days.
# Statistical analysis was carried out using a statistical software Stat View J-4.5 (Abacus Concepts). Since the parameter values before and after the administration to the same individual are compared, significant test was carried out by the paired t-test. In any of the cases, when the significance level was less than 5%, it was judged as significant.
# [2] = test system: cats with chronic renal failure; assay: Clinical score of uremic symptoms (activity + appetite) in cats with chronic renal failure; assay type: in vivo, cat; conditions: for clinical total score (full points 5): after one month
# Experimental: Testing methods for the patients showing uremia caused by chronic renal failure, employed in Example 4 or later, will now be described. The criteria and evaluation items for the cats and dogs with chronic renal failure are as follows: Diagnosis of uremia and chronic renal failure were performed totally taking clinical findings (including findings of uremia) and the results of the blood test, blood biochemical analysis and urinalysis into consideration. As the clinical findings of uremia, existence and degree of polydipsia and diuresis, dehydration, anorexia, weight loss, vomiting symptom and state of dehydration were observed. Existence of chronic renal failure was judged based on the serum Cre value as generally employed. As reference data for grasping the degree of progress of chronic renal failure, BUN value was also monitored.
# This pilot clinical test was performed after obtaining informed consent of the owners of the cats (clients) before the start of the test, wherein the clients received explanations about the fact that beraprost sodium had already been approved as a drug for human chronic artery obstruction and had already been marketed, and about the safety thereof. Further, giving first priority to the benefit of the patients and clients, conventional therapeutic methods were also combined appropriately for the individuals with progressed renal failure. Examples of the concomitant drugs employed include synthetic active carbons such as Covalzin, Kremezin and Nefguard; calcium preparations such as calcium carbonate; formula meals such as k/d and low-protein diets; and infusion solutions. However, in cases where there was a rational reason and consent by the owner was obtained, beraprost sodium alone was administered even to the individual with progressed renal failure. On the other hand, drugs thought to influence on the action of beraprost sodium, such as vasodilators (e.g., enalapril), diuretic (e.g., furosemide), drugs which influence on renal blood flow (e.g., dopamine) and steroids (e.g., prednisolone) were not used.
# Administration of beraprost sodium was conducted by orally administering the tablet with a content of 150 μg/tablet (Example 1) twice a day (300 μg/head/day). The administration was conducted every day and continued basically for 6 months, and in cases where the owner desired, the administration was continued even after the test period. The Examples of the present invention include both cases where the dosing period was less than 6 months and more than 6 months.
# Evaluation of degree of improvement of the uremic symptoms was carried out as follows: From the clinical symptoms related to uremia, activity and appetite, which are unlikely to be overlooked and which can be observed universally from before to after the test period, were selected. […] The evaluation was carried out based on the total points (full points were 5 points). Thus, a higher point indicates more improvements in the clinical symptoms.
# [3] = test system: dog with chronic renal failure; assay: BUN and serum Cre in dog with chronic renal failure (Case-H); assay type: in vivo; conditions: 150 μg/capsule oral twice a day alone
# Experimental: In the blood test, RBC, WBC, PCV, Hg and PLT were measured. In the blood biochemical analysis, TP, Tcho, AST, ALT, ALP, Tbil, BUN, creatinine, calcium, inorganic phosphorus, glucose, sodium ion, potassium ion and chloride ion were measured. In the urinalysis, protein amount, pH, occult blood, bilirubin and glucose were measured. To eliminate the circadian rhythm and influence by meals on the values of blood biochemical markers, every blood collection was carried out in the morning before feeding (at fasting).
# As a more specific criterion for chronic renal failure in cats and dogs in the present Examples, a serum Cre value of 1.4 mg/dL in the blood test was employed. Serum Cre value was measured by creatinine deaminase-amidohydrolase method, and the BUN value as reference data for grasping the degree of progress of chronic renal failure was measured by urease-GLDH method.
# In view of this, after obtaining consent by the client, treatment with Covalzin was stopped, and switched to administration of beraprost sodium alone. Beraprost sodium was diluted with polyethylene glycol (Wako) to attain a dose of 150 μg/capsule, and was divided into capsules (size 5 Shionogi Qualicaps). Beraprost sodium was orally administered twice a day at fasting. […] In the above-described series of therapy, feeding of a formula meal and infusion were not performed at all.
# [4] = test system: rats which spontaneously develops hypertension; conditions: administered together with saline and special diet; cited from earlier work
# [5] = test system: patients with diabetic nephropathy; conditions: cited from earlier work
# [6] = test system: patients with renal failure; conditions: renal failure in conservative stage; cited from earlier work
# [7] = first administration, 10-100 μg/kg oral
structure (smiles),measurement,setting,value
"CC#CC[C@@H](C)[C@H](O)/C=C/[C@@H]1[C@H]2c3cccc(CCCC(=O)[O-])c3O[C@H]2C[C@H]1O.[Na+] (mixture of isomers) [beraprost sodium, Sodium rac-(1R,2R,3aS,8bS)-2,3,3a,8b-tetrahydro-2-hydroxy-1-[(E)-(3S,4RS)-3-hydroxy-4-methyloct-1-en-6-ynyl]-1H-cyclopenta[b][1]benzofuran-5-butanoate]",maximum change in heart rate (increase),"[1]; 100 μg/kg oral, 30 minutes after administration",about 25%
same,time to restoration of heart rate to the level before administration,[1]; any dose (10-100 μg/kg oral),≤ 2 h
same,diastolic pressure,[1]; [7],No significant change
same,pulse pressure,[1]; [7],No significant change
same,systolic pressure,[1]; [7],No significant change
same,change in heart rate,"[1]; from 30 μg/kg/BID oral, 30 minutes to 1 hour after administration, not at 10 μg/kg/BID",significant (p<0.05) dose-dependent increase
same,clinical score (full points 5),"[2]; Case-A, male cat 5 y, 150 μg tablet oral BID alone, first month",4
same,clinical score (full points 5),"[2]; Case-A, 150 μg oral BID alone, second month, maintained for 6 months",5
same,clinical conditions / uremic symptoms at follow up,"[2]; Case-A, 6 months after termination (12 months after start)",not observed at all; also recorded: very good
same,outcome of uremia and renal failure,"[2]; Case-A, 6 months of 150 μg oral BID alone",completely cured
same,differences from normal cats in clinical observations and biochemical markers,"[2]; Case-A, end of the 6-month dosing period",no differences
same,total score of the clinical symptoms (full points 5),"[2]; Case-B, male cat 4 y, 150 μg oral BID alone, 1 month after start, 3 points before",5 points
same,clinical symptoms,"[2]; Case-B, first to second month",slight amelioration
same,clinical score (full points 5),"[2]; Case-B, from the fourth month",5 points
same,clinical score (full points 5),"[2]; Case-C, female cat 16 y, 150 μg oral BID alone, second week, 2 points before",4 points
same,clinical score (full points 5),"[2]; Case-C, after 2.5 months",5 points
same,clinical score (full points 5),"[2]; Case-C, after the sixth week",4 points
same,clinical score (full points 5),"[2]; Case-C, sixth week",2 points
same,clinical total score (full points 5),"[2]; Case-D, male Siamese cat 17 y, 150 μg oral BID alone, 2 points before",5 points
same,clinical total score (full points 5),"[2]; Case-E, 150 μg oral BID plus Covalzin 200 mg/BID, calcium preparation, formula meal, infusion, 0 point before",4 points
same,dehydration,"[2]; Case-E, combination therapy, first about 3 months",completely disappeared
same,clinical score (full points 5),"[2]; Case-E, combination therapy, for about 3 months",5 points
same,clinical score (full points 5),"[2]; Case-E, combination without Covalzin from fourth month, for about 2 months",3 points
same,clinical score (full points 5),"[2]; Case-E, combination without Covalzin, 7th to 8th month",5 points
same,clinical score (full points 5),"[2]; Case-F, 150 μg oral BID added to insulin, active carbon, calcium carbonate, first month, continues 10 months",5 points
same,uremic symptoms,"[2]; Case-F, combination therapy, after start of beraprost sodium",disappeared; also recorded: quickly improved
same,appetite and desire for water,"[2]; cats with renal failure, overall",clearly improved
same,BUN,[3],did not almost change
same,serum Cre value,[3],continuously increased
same,"onset of glomerulonephritis (urinary protein excretion, glomerulus tissue image)",[4],prevented
same,urinary microalbumin,[5],decreased
same,renal function (creatinine clearance or reciprocal of serum creatinine),[6],reduced the decrease in renal function
